Source: patent publication US20230117034A1, “PYRAZOLOTRIAZINES” (Bayer Aktiengesellschaft, priority 2019, published 2023)

Legend:
[1] = tested on: MDA-MB-231, human breast cancer cells; assay: Proliferation assay MDA-MB-231 (crystal violet, 4 days); assay type: cell-based; conditions: Homo sapiens, MDA-MB-231, 96 h, MDA-MB-231 cells, median, read-out: Prolif-MDA MB-231, IC50-[mol/l] (median)
Summary of the method: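 Plated 4,000 cells/well, 10% FCS; 24 h later treated 0.01-10 µmol/L cpd (DMSO 0.1%), 4 d. Fix glutaraldehyde, stain 0.1% crystal violet pH 3.0, elute acetic acid, A595. Normalized to t0 plate/untreated; 4-param IC50.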

[2] = tested on: BRCA1 mRNA expression in MDA-MB-231 cells; assay: qRT-PCR assay: BRCA1 mRNA expression in MDA-MB-231; assay type: cell-based, human; conditions: Homo sapiens, MDA-MB-231, Inhibition of BRCA1 mRNA expression in MDA-MB-231 cells; median; read-out: RTqPCR-MDA-MB-231, IC50, BRCA1 (median)
Summary of the method: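 Read-out is RT-qPCR with expression normalised to the GAPDH housekeeping gene. Before RNA isolation, plated cells (200,000 per well, 24 h attachment) received test substances continuously over 24 h, and 600 ng of RNA served as cDNA template.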

[3] = biological target: T1, CYCLIN K (nuclear staining in CAL-120 cells) (Homo sapiens, UniProt O75909); assay: CYCLIN K nuclear protein level: immunofluorescence high content analysis (CAL-120); assay type: cell-based; conditions: 24 h, 50% reduction of nuclear CCNK staining intensity, median, read-out: CYCLIN K degradation IF, DC50-[mol/l] (median)
T1 construct: endogenous in cells; host or cells: CAL-120 human breast cancer cells (DSMZ ACC 459)
Summary of the method: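 CAL-120 breast cancer cells treated in dose-response for 24 h at 37 °C, PFA-fixed and immunostained for cyclin K with Hoechst counterstain. Confocal imaging quantified nuclear intensity; DC50 is the concentration giving 50% reduction of nuclear CCNK staining, normalized to DMSO and control.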

T1 sequence (O75909 whole entry): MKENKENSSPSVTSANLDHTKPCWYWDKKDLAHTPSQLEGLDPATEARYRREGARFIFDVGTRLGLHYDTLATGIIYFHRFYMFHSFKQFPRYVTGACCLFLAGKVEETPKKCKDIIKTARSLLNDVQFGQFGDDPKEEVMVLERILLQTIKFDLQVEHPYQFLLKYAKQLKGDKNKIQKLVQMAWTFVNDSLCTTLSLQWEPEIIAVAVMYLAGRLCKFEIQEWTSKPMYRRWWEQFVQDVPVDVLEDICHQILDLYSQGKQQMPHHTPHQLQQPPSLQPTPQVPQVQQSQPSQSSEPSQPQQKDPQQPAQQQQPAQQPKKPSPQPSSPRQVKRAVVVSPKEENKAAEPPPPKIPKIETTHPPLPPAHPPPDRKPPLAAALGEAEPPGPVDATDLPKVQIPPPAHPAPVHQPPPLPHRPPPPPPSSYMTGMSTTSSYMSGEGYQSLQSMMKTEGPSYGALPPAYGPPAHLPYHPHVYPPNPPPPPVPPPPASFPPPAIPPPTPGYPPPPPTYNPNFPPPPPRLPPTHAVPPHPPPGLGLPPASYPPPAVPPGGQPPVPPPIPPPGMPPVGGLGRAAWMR
T1 sequence (Q9NYV4 whole entry partner): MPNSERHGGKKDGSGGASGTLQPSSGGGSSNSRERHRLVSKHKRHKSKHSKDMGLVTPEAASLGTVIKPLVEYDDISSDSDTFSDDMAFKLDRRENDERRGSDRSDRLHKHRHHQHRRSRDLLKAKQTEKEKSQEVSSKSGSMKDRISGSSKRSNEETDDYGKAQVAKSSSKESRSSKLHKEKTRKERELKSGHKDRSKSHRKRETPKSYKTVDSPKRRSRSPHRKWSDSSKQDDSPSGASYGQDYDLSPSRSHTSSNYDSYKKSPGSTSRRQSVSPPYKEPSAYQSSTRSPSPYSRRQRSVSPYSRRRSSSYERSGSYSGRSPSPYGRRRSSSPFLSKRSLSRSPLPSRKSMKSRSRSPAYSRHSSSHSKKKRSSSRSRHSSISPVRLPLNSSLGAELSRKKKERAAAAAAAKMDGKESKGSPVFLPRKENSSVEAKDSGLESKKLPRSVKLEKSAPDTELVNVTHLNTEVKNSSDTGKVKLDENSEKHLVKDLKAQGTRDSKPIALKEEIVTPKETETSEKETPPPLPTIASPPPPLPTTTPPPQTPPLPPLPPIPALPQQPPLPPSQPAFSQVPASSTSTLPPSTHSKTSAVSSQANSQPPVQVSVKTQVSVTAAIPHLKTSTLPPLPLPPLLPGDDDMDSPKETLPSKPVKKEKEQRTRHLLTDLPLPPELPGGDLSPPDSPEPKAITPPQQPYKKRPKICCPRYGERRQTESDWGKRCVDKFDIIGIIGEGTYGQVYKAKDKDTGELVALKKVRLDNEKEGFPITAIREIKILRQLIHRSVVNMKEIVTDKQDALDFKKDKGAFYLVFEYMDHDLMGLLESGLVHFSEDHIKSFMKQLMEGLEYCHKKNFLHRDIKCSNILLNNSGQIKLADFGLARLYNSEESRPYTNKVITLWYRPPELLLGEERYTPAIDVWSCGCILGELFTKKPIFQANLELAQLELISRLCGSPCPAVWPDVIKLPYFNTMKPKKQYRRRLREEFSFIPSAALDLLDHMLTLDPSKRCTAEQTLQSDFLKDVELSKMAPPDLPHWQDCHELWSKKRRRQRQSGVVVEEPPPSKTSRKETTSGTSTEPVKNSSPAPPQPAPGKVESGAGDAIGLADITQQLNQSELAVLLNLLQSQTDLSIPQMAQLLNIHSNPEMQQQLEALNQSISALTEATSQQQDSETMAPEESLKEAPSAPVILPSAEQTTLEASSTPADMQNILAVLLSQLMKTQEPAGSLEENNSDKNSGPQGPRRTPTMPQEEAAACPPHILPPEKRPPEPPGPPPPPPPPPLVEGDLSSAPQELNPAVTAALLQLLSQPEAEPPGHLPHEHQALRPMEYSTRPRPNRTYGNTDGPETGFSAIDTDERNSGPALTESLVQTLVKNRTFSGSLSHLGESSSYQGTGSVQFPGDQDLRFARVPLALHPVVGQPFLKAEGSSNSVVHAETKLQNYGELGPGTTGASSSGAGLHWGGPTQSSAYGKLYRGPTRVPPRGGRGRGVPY

Structure (SMILES)	IC50 [1] [nM]	IC50 [2] [nM]	DC50 [3] [nM]
CN1CC2CCC1CN2c1nc(NCc2nc3ccccc3[nH]2)n2ncc(Br)c2n1 (stereo not drawn) [Example 221, N-(1H-benzimidazol-2-ylmethyl)-8-bromo-2-(5-methyl-2,5-diazabicyclo[2.2.2]octan-2-yl)pyrazolo[1,5-a][1,3,5]triazin-4-amine]	31.7	11.8	0.41
Brc1cnn2c(NCc3nc4ccccc4[nH]3)nc(N3CC4CCC3CN4)nc12 (stereo not drawn) [Example 220, N-(1H-benzimidazol-2-ylmethyl)-8-bromo-2-(2,5-diazabicyclo[2.2.2]octan-2-yl)pyrazolo[1,5-a][1,3,5]triazin-4-amine]	21.2	4.18	1.14
CN1CC[C@@H]2CN(c3nc(NCc4nc5ccccc5[nH]4)n4ncc(Br)c4n3)C[C@@H]21 [Example 217, N-[(1H-benzimidazol-2-yl)methyl]-8-bromo-2-[(3aR,6aR)-1-methylhexahydropyrrolo[3,4-b]pyrrol-5 (1H)-yl]pyrazolo[1,5-a][1,3,5]triazin-4-amine]	97.9	33.5	4.56
Brc1cnn2c(NCc3nc4ccccc4[nH]3)nc(N3C[C@H]4CCCN[C@H]4C3)nc12 [Example 199, N-[(1H-benzimidazol-2-yl)methyl]-8-bromo-2-[(4aR, 7aR)-octahydro-6H-pyrrolo[3,4-b]pyridin-6-yl]pyrazolo[1,5-a][1,3,5]triazin-4-amine]	53.2	47.9	2.32
CN1CC2CN(c3nc(NCc4nc5ccccc5[nH]4)n4ncc(Br)c4n3)CC2C1 (stereo not drawn) [Example 240, N-(1H-benzimidazol-2-ylmethyl)-8-bromo-2-(2-methyl-1,3,3a,4,6,6a-hexahydropyrrolo[3,4-c]pyrrol-5-yl)pyrazolo[1,5-a][1,3,5]triazin-4-amine]	38.6	7.69	1.09
Fc1cccc2[nH]c(CNc3nc(N4C[C@@H]5C[C@H]4CO5)nc4c(C5CC5)cnn34)nc12 [Example 183, 8-cyclopropyl-N-[(4-fluoro-1H-benzimidazol-2-yl)methyl]-2-[(1S,4S)-2-oxa-5-azabicyclo[2.2.1]heptan-5-yl]pyrazolo[1,5-a][1,3,5]triazin-4-amine]	56	4.17	1.64
OC1CCN(c2nc(NCc3nc4ccccc4[nH]3)n3ncc(Br)c3n2)CC1 [Example 17, 1-(4-{[(1H-benzimidazol-2-yl)methyl]amino}-8-bromopyrazolo[1,5-a][1,3,5]triazin-2-yl)piperidin-4-ol]	107	12	4.63
O[C@H]1C[C@@H](Nc2nc(NCc3nc4ccccc4[nH]3)n3ncc(Br)c3n2)C1 [Example 234, cis-3-[(4-{[(1H-benzimidazol-2-yl)methyl]amino}-8-bromopyrazolo[1,5-a][1,3,5]triazin-2-yl)amino]cyclobutan-1-ol]	59.9	5.76	1.74
CC(C)(O)CNc1nc(NCc2nc3ccccc3[nH]2)n2ncc(Br)c2n1 [Example 229, 1-[(4-{[(1H-benzimidazol-2-yl)methyl]amino}-8-bromopyrazolo[1,5-a][1,3,5]triazin-2-yl)amino]-2-methylpropan-2-ol]	42.8	10.8	0.39
CN1CCN(c2nc(NCc3nc4ccccc4[nH]3)n3ncc(Br)c3n2)CC1 [Example 18, N-[(1H-benzimidazol-2-yl)methyl]-8-bromo-2-(4-methylpiperazin-1-yl)pyrazolo[1,5-a][1,3,5]triazin-4-amine]	31	11.4	1.39
CN1C[C@H]2C[C@@H]1CN2c1nc(NCc2nc3ccccc3[nH]2)n2ncc(Br)c2n1 [Example 218, N-[(1H-benzimidazol-2-yl)methyl]-8-bromo-2-[(1R,4R)-5-methyl-2,5-diazabicyclo[2.2.1]heptan-2-yl]pyrazolo[1,5-a][1,3,5]triazin-4-amine]	35.7	12.3	0.685

These reach a lower IC50 [1]. Values come first.

IC50 [1] [nM]	IC50 [2] [nM]	DC50 [3] [nM]	Structure (SMILES)
17.7	19.3	0.347	COc1cccc2[nH]c(CNc3nc(N4C[C@@H]5CCCN[C@@H]5C4)nc4c(C5CC5)cnn34)nc12 [Example 214, 8-cyclopropyl-N-[(4-methoxy-1H-benzimidazol-2-yl)methyl]-2-[(4aS,7aS)-octahydro-6H-pyrrolo[3,4-b]pyridin-6-yl]pyrazolo[1,5-a][1,3,5]triazin-4-amine]
16.8	7.36	0.354	CC1(C)CN(c2nc(NCc3nc4ccccc4[nH]3)n3ncc(Br)c3n2)CCN1 [Example 216, N-[(1H-benzimidazol-2-yl)methyl]-8-bromo-2-(3,3-dimethylpiperazin-1-yl)pyrazolo[1,5-a][1,3,5]triazin-4-amine]
14.6	4.68	0.208	Brc1cnn2c(NCc3nc4ccccc4[nH]3)nc(N3CCNC4(CC4)C3)nc12 [Example 176, N-[(1H-benzimidazol-2-yl)methyl]-8-bromo-2-(4,7-diazaspiro[2.5]octan-7-yl)pyrazolo[1,5-a][1,3,5]triazin-4-amine]
13.9	12	0.859	Fc1ccc2[nH]c(CNc3nc(N4C[C@@H]5CCCN[C@@H]5C4)nc4c(C5CC5)cnn34)nc2c1 [Example 180, 8-cyclopropyl-N-[(5-fluoro-1H-benzimidazol-2-yl)methyl]-2-[(4aS, 7aS)-octahydro-6H-pyrrolo[3,4-b]pyridin-6-yl]pyrazolo[1,5-a][1,3,5]triazin-4-amine]
13.8	9.17	0.369	Fc1cccc2[nH]c(CNc3nc(N4C[C@@H]5CCCN[C@@H]5C4)nc4c(C5CC5)cnn34)nc12 [Example 187, 8-cyclopropyl-N-[(4-fluoro-1H-benzimidazol-2-yl)methyl]-2-[(4aS,7aS)-octahydro-6H-pyrrolo[3,4-b]pyridin-6-yl]pyrazolo[1,5-a][1,3,5]triazin-4-amine]
6.64	3.65	0.958	Cc1ccc2[nH]c(CNc3nc(N4CCOCC4)nc4c(C5CC5)cnn34)nc2c1 [Example 193, 8-cyclopropyl-N-[(5-methyl-1H-benzimidazol-2-yl)methyl]-2-(morpholin-4-yl)pyrazolo[1,5-a][1,3,5]triazin-4-amine]
5.49	1.03	0.981	Fc1ccc2[nH]c(CNc3nc(N4C[C@@H]5CCCN[C@@H]5C4)nc4c(C5CC5)cnn34)nc2c1F [Example 171, 8-cyclopropyl-N-[(4,5-difluoro-1H-benzimidazol-2-yl)methyl]-2-[(4aS,7aS)-octahydro-6H-pyrrolo[3,4-b]pyridin-6-yl]pyrazolo[1,5-a][1,3,5]triazin-4-amine]
5.35	0.626	0.894	Fc1ccc2[nH]c(CNc3nc(N4CCOCC4)nc4c(C5CC5)cnn34)nc2c1F [Example 172, 8-cyclopropyl-N-[(4,5-difluoro-1H-benzimidazol-2-yl)methyl]-2-(morpholin-4-yl)pyrazolo[1,5-a][1,3,5]triazin-4-amine]
4.94	1.49	0.16	C[C@@H]1CN(c2nc(NCc3nc4c(F)cccc4[nH]3)n3ncc(C4CC4)c3n2)C[C@H](C)N1 [Example 186, 8-cyclopropyl-2-[(3R,5S)-3,5-dimethylpiperazin-1-yl]-N-[(4-fluoro-1H-benzimidazol-2-yl)methyl]pyrazolo[1,5-a][1,3,5]triazin-4-amine]
4.2	1.81	0.279	COc1ccc2[nH]c(CNc3nc(N4C[C@@H](C)N[C@@H](C)C4)nc4c(Br)cnn34)nc2c1 [Example 205, 8-bromo-2-[(3R,5S)-3,5-dimethylpiperazin-1-yl]-N-[(5-methoxy-1 H-benzimidazol-2-yl)methyl]pyrazolo[1,5-a][1,3,5]triazin-4-amine]
3.26	1.63	0.147	C[C@@H]1CN(c2nc(NCc3nc4cc(F)ccc4[nH]3)n3ncc(C4CC4)c3n2)C[C@H](C)N1 [Example 175, 8-cyclopropyl-2-[(3R,5S)-3,5-dimethylpiperazin-1-yl]-N-[(5-fluoro-1H-benzimidazol-2-yl)methyl]pyrazolo[1,5-a][1,3,5]triazin-4-amine]
2.19	0.872	0.0976	Fc1ccc2[nH]c(CNc3nc(N4CCNCC4)nc4c(C5CC5)cnn34)nc2c1F [Example 174, 8-cyclopropyl-N-[(4,5-difluoro-1H-benzimidazol-2-yl)methyl]-2-(piperazin-1-yl)pyrazolo[1,5-a][1,3,5]triazin-4-amine]
1.59	1.13	0.0967	Cc1ccc2[nH]c(CNc3nc(N4CCNCC4)nc4c(Br)cnn34)nc2c1 [Example 204, 8-bromo-N-[(5-methyl-1H-benzimidazol-2-yl)methyl]-2-(piperazin-1-yl)pyrazolo[1,5-a][1,3,5]triazin-4-amine]
